Assay results from patent US11206830B2, “Herbicidal composition comprising glufosinate or a salt thereof and pyroxasulfone” (BASF SE, priority 2008, dated 2021).

Legend:
Format in all cases: in vivo
[1] = test system: Matricaria inermis (MATIN); experiment: greenhouse post-emergence herbicidal activity on MATIN; details: solo application
Excerpt: (§1) For the post-emergence treatment, the test plants were first grown to a height of 3 to 20 cm, depending on the plant habit, and only then treated. Here, the herbicidal compositions were suspended or emulsified in water as distribution medium and sprayed using finely distributing nozzles.
(§2) The respective herbicides B and/or safener were formulated as 10% by weight strength suspension concentrate and introduced to the spray liquor with the amount of solvent system used for applying the active compound. Herbicides A, C and/or safener were used as commercially available formulations and introduced to the spray liquor with the amount of solvent system used for applying the active compound. In the examples, the solvent used was water.
(§3) The test period extended over 21 days. During this time, the plants were tended, and their response to the treatments with active compound was evaluated.
(§4) The evaluation for the damage caused by the chemical compositions was carried out using a scale from 0 to 100%, compared to the untreated control plants. Here, 0 means no damage and 100 means complete destruction of the plants.
(§5) The value E, which is to be expected if the activity of the individual compounds is just additive, was calculated using the method of S. R. Colby (1967) “Calculating synergistic and antagonistic responses of herbicide combinations”, Weeds 15, p. 22 ff. For two component mixtures the value E was calculated by the following formula E=X+Y−(X·Y/100)
(§6) For three component mixtures the value E was calculated by the following formula E=X+Y+Z−(XY+XZ+YZ)/100+(X·YZ/10000) where X=effect in percent using herbicide A at an application rate a; • Y=effect in percent using herbicide B at an application rate b; • Z=effect in percent using herbicide C at an application rate c; • E=expected effect (in %) of A+B at application rates a+b. or • E=expected effect (in %) of A+B+C at application rates a+b+c.
(§7) If the value observed in this manner is higher than the value E calculated according to Colby, a synergistic effect is present.
(§8) Tables 1 to 12 relate to the herbicidal activity of the individual actives and of their combinations in post-emergence application assessed 20 DAT.

[2] = test system: Alopecurus myosuroides (ALOMY); experiment: greenhouse post-emergence herbicidal activity on ALOMY; details: solo application
Excerpt: as §1, §2, §3, §4, §5, §6, §7, §8

[3] = test system: Digitaria sanguinalis (DIGSA); experiment: greenhouse post-emergence herbicidal activity on DIGSA; details: solo application
Excerpt: as §1, §2, §3, §4, §5, §6, §7, §8

[4] = test system: Abutilon theophrasti (ABUTH); experiment: greenhouse post-emergence herbicidal activity on ABUTH; details: solo application; for inhibition at 5 g/ha: 5 g ai/ha
Excerpt: as §1, §2, §3, §4, §5, §6, §7, §8

[5] = test system: Lolium multiflorum (LOLMU); experiment: greenhouse post-emergence herbicidal activity on LOLMU; details: solo application; for inhibition at 5 g/ha: 5 g ai/ha
Excerpt: as §1, §2, §3, §4, §5, §6, §7, §8

[6] = test system: Chenopodium album (CHEAL); experiment: greenhouse post-emergence herbicidal activity on CHEAL; details: solo application
Excerpt: as §1, §2, §3, §4, §5, §6, §7, §8

Galium aparine (GALAP) = experiment: greenhouse post-emergence herbicidal activity on GALAP; details: solo application; for inhibition at 5 g/ha: 5 g ai/ha
Excerpt: as §1, §2, §3, §4, §5, §6, §7, §8

[7] = test system: Polygonum convolvulus (POLCO); experiment: greenhouse post-emergence herbicidal activity on POLCO; details: solo application
Excerpt: as §1, §2, §3, §4, §5, §6, §7, §8

Setaria viridis (SETVI) = experiment: greenhouse post-emergence herbicidal activity on SETVI; details: 480 h, solo application, 100 g ai/ha, read-out: % activity 20 DAT
Excerpt: as §1, §2, §3
(§9) The evaluation for the damage caused by the chemical compositions was carried out using a scale from 0 to 100%, compared to the untreated control plants. […]
(§10) The value E, which is to be expected if the activity of the individual compounds is just additive, was calculated using the method of S. R. Colby (1967) “Calculating synergistic and antagonistic responses of herbicide combinations”, Weeds 15, p. […] For two component mixtures the value E was calculated by the following formula E=X+Y−(X·Y/100)
as §6, §7, §8

[8] = test system: Amaranthus retroflexus (AMARE); experiment: greenhouse post-emergence herbicidal activity on AMARE; details: 480 h, solo application, 100 g ai/ha, read-out: % activity 20 DAT
Excerpt: as §1, §2, §3, §9, §10, §6, §7, §8

[9] = test system: Echinochloa crus-galli (ECHCG); experiment: greenhouse post-emergence herbicidal activity on ECHCG; details: solo application, 1.56 g ai/ha
Excerpt: as §1, §2, §3, §9, §10, §6, §7, §8

[10] = Abutilon theophrasti, 480 h, read-out: % activity 20 DAT
[11] = Lolium multiflorum, 480 h, read-out: % activity 20 DAT
[12] = Galium aparine, 480 h, read-out: % activity 20 DAT

## COCc1cnc(C2=NC(C)(C(C)C)C(=O)N2)c(C(=O)O)c1 (stereo not shown) [imazamox]
[1]; Matricaria, 480 h, 5 g ai/ha, read-out: % activity 20 DAT
  inhibition at 5 g/ha: 25%
[2]; Alopecurus myosuroides, 480 h, 10 g ai/ha, read-out: % activity 20 DAT
  inhibition at 10 g/ha: 30%
[3]; Digitaria sanguinalis, 480 h, 10 g ai/ha, read-out: % activity 20 DAT
  inhibition at 10 g/ha: 20%
[4]; [10]
  inhibition at 5 g/ha: 50%
[5]; [11]
  inhibition at 5 g/ha: 40%
[5]; Lolium multiflorum, 480 h, 10 g ai/ha, read-out: % activity 20 DAT
  inhibition at 10 g/ha: 60%
[6]; Chenopodium album, 480 h, 5 g ai/ha, read-out: % activity 20 DAT
  inhibition at 5 g/ha: 15%
[6]; Chenopodium album, 480 h, 10 g ai/ha, read-out: % activity 20 DAT
  inhibition at 10 g/ha: 30%
Galium aparine (GALAP); [12]
  inhibition at 5 g/ha: 20%
Galium aparine (GALAP); Galium aparine, 480 h, 10 g ai/ha, read-out: % activity 20 DAT
  inhibition at 10 g/ha: 30%

## Cc1cnc(C2=NC(=O)C(C)(C(C)C)N2)c(C(=O)O)c1 (stereo not shown) [imazapic]
[2]; Alopecurus myosuroides, 480 h, 20 g ai/ha, read-out: % activity 20 DAT
  inhibition at 20 g/ha: 45%
[3]; Digitaria sanguinalis, 480 h, 5 g ai/ha, read-out: % activity 20 DAT
  inhibition at 5 g/ha: 50%
[4]; [10]
  inhibition at 5 g/ha: 60%
[5]; [11]
  inhibition at 5 g/ha: 60%
[6]; Chenopodium album, 480 h, 20 g ai/ha, read-out: % activity 20 DAT
  inhibition at 20 g/ha: 40%
Galium aparine (GALAP); [12]
  inhibition at 5 g/ha: 55%

## CS(=O)(=O)c1cc(C(F)(F)F)ccc1C(=O)c1cnoc1C1CC1 [isoxaflutole]
[2]; Alopecurus myosuroides, 480 h, 6.25 g ai/ha, read-out: % activity 20 DAT
  inhibition at 6.25 g/ha: 0%
[3]; Digitaria sanguinalis, 480 h, 6.25 g ai/ha, read-out: % activity 20 DAT
  inhibition at 6.25 g/ha: 15%
[7]; Fallopia convolvulus, 480 h, 25 g ai/ha, read-out: % activity 20 DAT
  inhibition at 25 g/ha: 45%
[4]; Abutilon theophrasti, 480 h, 6.25 g ai/ha, read-out: % activity 20 DAT
  inhibition at 6.25 g/ha: 55%
[6]; Chenopodium album, 480 h, 6.25 g ai/ha, read-out: % activity 20 DAT
  inhibition at 6.25 g/ha: 75%

## CCC(CC)Nc1c([N+](=O)[O-])cc(C)c(C)c1[N+](=O)[O-] [pendimethalin]
[1]; Matricaria, 480 h, 100 g ai/ha, read-out: % activity 20 DAT
  inhibition at 100 g/ha: 0%
[1]; Matricaria, 480 h, 800 g ai/ha, read-out: % activity 20 DAT
  inhibition at 800 g/ha: 0%
Setaria viridis (SETVI)
  inhibition at 100 g/ha: 30%
[2]; Alopecurus myosuroides, 480 h, 400 g ai/ha, read-out: % activity 20 DAT
  inhibition at 400 g/ha: 40%
[8]
  inhibition at 100 g/ha: 75%
[5]; Lolium multiflorum, 480 h, 200 g ai/ha, read-out: % activity 20 DAT
  inhibition at 200 g/ha: 30%

## O=C(Nc1ccc(F)cc1)c1cccc(Oc2cccc(C(F)(F)F)c2)n1 [picolinafen]
[1]; 50 g ai/ha
  % activity 20 DAT: 60%
[2]; 6.25 g ai/ha
  % activity 20 DAT: 0%
[2]; 25 g ai/ha
  % activity 20 DAT: 0%
[3]; 6.25 g ai/ha
  % activity 20 DAT: 30%
[3]; 12.5 g ai/ha
  % activity 20 DAT: 45%
[7]; 50 g ai/ha
  % activity 20 DAT: 80%
[4]; 6.25 g ai/ha
  % activity 20 DAT: 30%
[4]; 25 g ai/ha
  % activity 20 DAT: 60%
[5]; 12.5 g ai/ha
  % activity 20 DAT: 10%
[6]; 12.5 g ai/ha
  % activity 20 DAT: 30%
Galium aparine (GALAP); 6.25 g ai/ha
  % activity 20 DAT: 30%

## CC(C)N(C)S(=O)(=O)NC(=O)c1cc(-n2c(=O)cc(C(F)(F)F)n(C)c2=O)c(F)cc1Cl [saflufenacil]
[1]; 1.56 g ai/ha
  % activity 20 DAT: 20%
[1]; 3.13 g ai/ha
  % activity 20 DAT: 55%
[2]; 1.56 g ai/ha
  % activity 20 DAT: 0%
[2]; 3.13 g ai/ha
  % activity 20 DAT: 0%
[3]; 1.56 g ai/ha
  % activity 20 DAT: 0%
[7]; 1.56 g ai/ha
  % activity 20 DAT: 45%
[7]; 3.13 g ai/ha
  % activity 20 DAT: 55%
[4]; 1.56 g ai/ha
  % activity 20 DAT: 45%
[9]
  % activity 20 DAT: 0%
[6]; 1.56 g ai/ha
  % activity 20 DAT: 40%
Galium aparine (GALAP); 3.13 g ai/ha
  % activity 20 DAT: 30%
